In ChEMBL document CHEMBL1130917, “The design, synthesis, and structure-activity relationships of a series of macrocyclic MMP inhibitors” (Bioorg Med Chem Lett, 1998):

Tests used:
Interstitial collagenase = biological target: T1, Interstitial collagenase (Homo sapiens, UniProt P03956); experiment: Inhibition of fibroblast collagenase (MMP-1)
T1 sequence (P03956 whole entry): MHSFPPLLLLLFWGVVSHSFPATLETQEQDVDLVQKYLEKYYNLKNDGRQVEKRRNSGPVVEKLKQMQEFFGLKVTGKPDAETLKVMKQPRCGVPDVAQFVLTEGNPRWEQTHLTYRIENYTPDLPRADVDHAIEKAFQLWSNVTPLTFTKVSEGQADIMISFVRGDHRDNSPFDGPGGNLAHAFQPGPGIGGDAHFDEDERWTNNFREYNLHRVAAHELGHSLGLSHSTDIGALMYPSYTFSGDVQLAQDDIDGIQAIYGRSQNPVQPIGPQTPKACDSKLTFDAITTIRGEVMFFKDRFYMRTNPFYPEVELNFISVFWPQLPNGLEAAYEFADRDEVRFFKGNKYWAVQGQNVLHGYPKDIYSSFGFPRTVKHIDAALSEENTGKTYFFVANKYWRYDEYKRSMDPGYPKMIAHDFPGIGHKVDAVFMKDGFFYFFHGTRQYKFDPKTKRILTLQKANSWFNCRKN

Matrilysin = biological target: T2, Matrilysin (Homo sapiens, UniProt P09237); experiment: Inhibition of fibroblast matrilysin (MMP-7)
T2 sequence (P09237 whole entry): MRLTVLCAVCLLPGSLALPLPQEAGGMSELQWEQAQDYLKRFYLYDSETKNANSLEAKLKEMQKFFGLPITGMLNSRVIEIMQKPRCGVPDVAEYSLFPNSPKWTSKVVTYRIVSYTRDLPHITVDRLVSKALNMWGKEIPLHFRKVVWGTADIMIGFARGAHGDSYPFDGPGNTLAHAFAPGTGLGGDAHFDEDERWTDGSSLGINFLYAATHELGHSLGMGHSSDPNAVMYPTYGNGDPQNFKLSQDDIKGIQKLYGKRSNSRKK

Stromelysin-1 = Stromelysin-1 (Homo sapiens, UniProt P08254); experiment: Inhibition of fibroblast stromelysin (MMP-3)
[1] = biological target: 72 kDa type IV collagenase (Homo sapiens, UniProt P08253); experiment: Inhibition of fibroblast gelatinase A (MMP-2)
Chain of 72 kDa type IV collagenase (P08253 whole entry): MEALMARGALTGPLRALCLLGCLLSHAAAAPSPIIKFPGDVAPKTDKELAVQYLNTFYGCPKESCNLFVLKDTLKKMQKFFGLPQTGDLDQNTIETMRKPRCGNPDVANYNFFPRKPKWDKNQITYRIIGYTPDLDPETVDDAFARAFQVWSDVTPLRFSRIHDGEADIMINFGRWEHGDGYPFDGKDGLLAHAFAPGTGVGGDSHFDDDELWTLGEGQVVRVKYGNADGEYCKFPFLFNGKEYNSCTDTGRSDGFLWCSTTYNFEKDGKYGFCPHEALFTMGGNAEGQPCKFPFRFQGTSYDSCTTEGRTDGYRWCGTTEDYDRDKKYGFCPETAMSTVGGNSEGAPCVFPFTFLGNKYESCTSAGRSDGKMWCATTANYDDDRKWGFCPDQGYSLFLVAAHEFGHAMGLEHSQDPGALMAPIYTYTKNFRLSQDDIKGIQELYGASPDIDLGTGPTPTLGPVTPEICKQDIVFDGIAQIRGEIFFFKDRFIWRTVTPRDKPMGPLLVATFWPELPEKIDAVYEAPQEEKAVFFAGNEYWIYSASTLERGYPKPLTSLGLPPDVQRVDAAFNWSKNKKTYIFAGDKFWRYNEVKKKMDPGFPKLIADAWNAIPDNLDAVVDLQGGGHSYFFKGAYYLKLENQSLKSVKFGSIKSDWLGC

Chain of Stromelysin-1 (P08254 whole entry): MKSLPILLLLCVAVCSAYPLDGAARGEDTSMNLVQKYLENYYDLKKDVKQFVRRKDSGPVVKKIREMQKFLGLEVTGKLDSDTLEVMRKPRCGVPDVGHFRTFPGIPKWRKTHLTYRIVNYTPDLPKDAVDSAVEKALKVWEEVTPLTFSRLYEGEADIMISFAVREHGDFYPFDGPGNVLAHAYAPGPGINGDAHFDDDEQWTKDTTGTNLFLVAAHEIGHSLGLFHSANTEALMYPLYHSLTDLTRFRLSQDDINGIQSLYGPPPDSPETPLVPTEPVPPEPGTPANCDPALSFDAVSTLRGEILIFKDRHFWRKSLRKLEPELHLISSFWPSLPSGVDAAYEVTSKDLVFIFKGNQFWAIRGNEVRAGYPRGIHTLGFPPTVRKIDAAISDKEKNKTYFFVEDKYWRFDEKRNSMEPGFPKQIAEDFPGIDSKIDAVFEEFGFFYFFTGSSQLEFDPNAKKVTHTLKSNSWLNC

SMILES | IC50 (Interstitial collagenase) [nM] | IC50 (Matrilysin) [nM] | IC50 (Stromelysin-1) [nM] | IC50 [1] [nM]
CNC(=O)[C@@H]1Cc2ccc(cc2)OCCCC[C@H](C(=O)NO)[C@@H](CCCc2ccc(C)cc2)C(=O)N1 | 6.1 | 2.8 | 9.1 | 0.8
CNC(=O)[C@@H]1Cc2ccc(cc2)OCCCCC[C@H](C(=O)NO)[C@@H](CC(C)C)C(=O)N1 | 2.1 | 2.6 |  | 2.3
CNC(=O)[C@@H]1Cc2ccc(cc2)OCCCC[C@@H](C(=O)NO)[C@@H](CC(C)C)C(=O)N1 | 110 | 440 |  | 230
CNC(=O)[C@@H]1Cc2ccc(cc2)OCCC[C@H](C(=O)NO)[C@@H](CC(C)C)C(=O)N1 | 3 | 3 |  | 2.6
CSCCNC(=O)[C@@H]1Cc2ccc(cc2)OCCCC[C@H](C(=O)NO)[C@@H](CC(C)C)C(=O)N1 | 2.7 | 2.5 | 4.2 | 3.8
CC(C)C[C@H]1C(=O)N[C@H](C(=O)NCCc2ccc(S(N)(=O)=O)cc2)Cc2ccc(cc2)OCCCC[C@@H]1C(=O)NO | 3 | 25 |  | 1.9
CNC(=O)[C@@H]1Cc2ccc(cc2)OCCCCC[C@H](C(=O)O)[C@@H](CC(C)C)C(=O)N1 | 1400 | 110 | 75 | 1400
CCCc1ccc(CC[C@H]2C(=O)N[C@H](C(=O)NC)Cc3ccc(cc3)OCCCC[C@@H]2C(=O)NO)cc1 | 54 | 5.9 |  | 0.1
CNC(=O)[C@@H]1Cc2ccc(cc2)OCCCC[C@H](C(=O)NO)[C@@H](CCCCOCc2ccccc2)C(=O)N1 | 210 | 180 | 1.8 | 0.3
CNC(=O)[C@@H]1Cc2ccc(cc2)OCCC[C@H](C(=O)O)[C@@H](CC(C)C)C(=O)N1 | > 10000 | 900 |  | 14000
CC(C)C[C@H]1C(=O)N[C@H](C(=O)Nc2ccccn2)Cc2ccc(cc2)OCCCC[C@@H]1C(=O)NO | 4.6 | 1.6 |  | 2.1
CNC(=O)[C@@H]1Cc2ccc(cc2)OCCCC[C@H](C(=O)NO)[C@@H](CC(C)C)C(=O)N1 | 1.8 | 1.6 |  | 2.2
CNC(=O)[C@@H]1Cc2ccc(cc2)OCCCCCC[C@H](C(=O)NO)[C@@H](CC(C)C)C(=O)N1 | 2.2 | 5.7 |  | 5.9
CC(C)C[C@H]1C(=O)N[C@H](C(=O)NCCN(C)C)Cc2ccc(cc2)OCCCC[C@@H]1C(=O)NO | 6.6 | 4.2 | 12 | 6.5
